How the values were obtained:
[1] = system: crabgrass; assay: Test B pre/postemergence crabgrass; type: in vivo, Digitaria sanguinalis; details: for Crabgrass plant response rating (0 to 10 scale): 0 is no effect
How it was run: (§1)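 Response is a visual 0-to-10 score relative to untreated plants, where 0 means no effect and 10 means complete control, taken twelve to sixteen days after application. Treatments went onto soil at planting and onto foliage of 1- to 4-leaf plants, using a surfactant-containing non-phytotoxic solvent.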

[2] = system: soybean; assay: Test B pre/postemergence soybean; type: in vivo, Glycine max; details: for Soybean plant response rating (0 to 10 scale): 0 is no effect
How it was run: as §1

[3] = system: wheat; assay: Test B pre/postemergence wheat; type: in vivo, Triticum aestivum
How it was run: as §1

[4] = system: smallflower flatsedge; assay: Test B flood test smallflower flatsedge; type: in vivo, Cyperus difformis
How it was run: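 Plants were grown to the 2-leaf stage before treatment with test chemical, then held in a greenhouse for twelve to sixteen days. Injury was visually rated against untreated controls on a 0–10 scale, where 0 is no effect and 10 is complete control.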

[5] = system: wild oat; assay: Test B pre/postemergence wild oat; type: in vivo, Avena fatua
How it was run: as §1

[6] = Preemergence, Rate 62 g/ha, scale of 0 to 10 where 0 is no effect and 10 is complete control
[7] = Preemergence, Rate 125 g/ha, 10 is complete control
[8] = Preemergence, Rate 250 g/ha, scale 0 to 10, 0 is no effect, 10 is complete control
[9] = Preemergence, Rate 500 g/ha, scale 0 to 10 (0 no effect, 10 complete control)
[10] = Rate 62 g/ha, Postemergence, scale of 0 to 10 where 0 is no effect and 10 is complete control
[11] = Rate 125 g/ha, Postemergence, scale 0 to 10
[12] = Rate 500 g/ha, Postemergence, scale 0 to 10
[13] = Rate 62 g/ha, headed Pre-emergence (flood test species), scale 0 to 10 (0 no effect, 10 complete control)
[14] = Rate 125 g/ha, Pre-emergence, flood test species, scale 0 to 10 where 0 is no effect and 10 is complete control
[15] = Rate 250 g/ha, Pre-emergence, flood-test species, scale 0 to 10, 0 is no effect, 10 is complete control
[16] = Rate 500 g/ha, Pre-emergence, flood test species, scale 0 to 10 (0 no effect, 10 complete control)
[17] = Postemergence, Rate 62 g/ha, scale 0 to 10, 0 is no effect, 10 is complete control
[18] = Postemergence, Rate 250 g/ha, scale 0 to 10, 0 no effect, 10 complete control
[19] = Preemergence, Rate 62 g/ha, scale 0 to 10, 0 is no effect, 10 is complete control
[20] = Preemergence, Rate 125 g/ha, scale 0 to 10 (0 no effect, 10 complete control)
[21] = Preemergence, Rate 250 g/ha, scale of 0 to 10 where 0 is no effect and 10 is complete control
[22] = Preemergence, Rate 500 g/ha, scale 0 (no effect) to 10 (complete control)
[23] = Rate 125 g/ha, Postemergence, scale 0 to 10, 0 no effect, 10 complete control
[24] = Rate 500 g/ha, Postemergence, scale 0 to 10, 0 no effect, 10 complete control
[25] = Postemergence, Rate 125 g/ha, scale of 0 to 10 where 0 is no effect and 10 is complete control
[26] = Preemergence, Rate 125 g/ha, scale of 0 to 10 where 0 is no effect and 10 is complete control
[27] = Preemergence, Rate 250 g/ha, scale 0 to 10 (0 no effect, 10 complete control)
[28] = Preemergence, Rate 500 g/ha, scale of 0 to 10 where 0 is no effect and 10 is complete control
[29] = Rate 500 g/ha, Postemergence, scale 0 to 10, 0 is no effect, 10 is complete control

Cc1ccccc1-n1c(=O)on(C(=O)N(c2ccc(Cl)cc2Cl)C(C)C)c1=O [Compound 185]
1: Crabgrass plant response rating [1, 11] | Crabgrass plant response rating [1, 12]
3: Plant response rating (0 to 10; 0 is no effect, 10 is complete control), Soybean ([2]; Rate 250 g/ha, Postemergence) | Soybean plant response rating [2, 12]
9: Crabgrass plant response rating [1, 9]
6: Crabgrass plant response rating (0 to 10 scale) [1, 7]
2: Crabgrass plant response rating [1, 6] | Soybean plant response rating [2, 10] | Soybean plant response rating [2, 11]
0: Crabgrass plant response rating [1, 10] | Soybean plant response rating [2, 6] | Soybean plant response rating (0 to 10 scale) [2, 7] | Soybean plant response rating [2, 8] | Soybean plant response rating [2, 9] | Wheat plant response rating [3, 6] | Wheat plant response rating [3, 8] | Wheat plant response rating [3, 9] | Wheat plant response rating [3, 11] | Plant response rating (0 to 10; 0 is no effect, 10 is complete control), Wheat ([3]; Rate 250 g/ha, Postemergence) | S. Flatsedge plant response rating [4, 13] | S. Flatsedge plant response rating [4, 14] | S. Flatsedge plant response rating [4, 15] | S. Flatsedge plant response rating [4, 16] | Wild oats plant response rating [5, 6] | Wild oats plant response rating [5, 8] | Wild oats plant response rating [5, 9] | Wild oats plant response rating [5, 11] | Plant response rating (0 to 10; 0 is no effect, 10 is complete control), Wild oats ([5]; Rate 250 g/ha, Postemergence)
7: Crabgrass plant response rating [1, 8]

Cc1cccc(C)c1-n1c(=O)on(C(=O)N(c2ccc(Cl)cc2)C(C)C)c1=O [Compound 47]
2: Plant response rating, Crabgrass [1, 20] | Plant response rating, Crabgrass [1, 21] | Crabgrass plant response rating [1, 24] | Soybean plant response rating [2, 17] | Soybean plant response rating [2, 18] | Soybean plant response rating [2, 23] | Soybean plant response rating [2, 24] | Wheat plant response rating [3, 18] | S. Flatsedge plant response rating ([4]; Pre-emergence, Rate 1000 g/ha, scale 0 to 10 (0 no effect, 10 complete control)) | S. Flatsedge plant response rating ([4]; Rate 250 g/ha, headed Pre-emergence (flood test species), scale 0 to 10 (0 no effect, 10 complete control)) | Plant response rating, S. Flatsedge ([4]; Rate 500 g/ha, headed Pre-emergence (flood test species), scale 0 to 10 (0 no effect, 10 complete control))
0: Crabgrass plant response rating [1, 17] | Crabgrass plant response rating [1, 18] | Plant response rating, Crabgrass [1, 19] | Crabgrass plant response rating [1, 23] | Plant response rating, Soybean [2, 19] | Plant response rating, Soybean [2, 20] | Plant response rating, Soybean [2, 21] | Soybean plant response rating [2, 22] | Wheat plant response rating [3, 17] | Plant response rating, Wheat [3, 19] | Plant response rating, Wheat [3, 20] | Plant response rating, Wheat [3, 21] | Wheat plant response rating [3, 22] | Wheat plant response rating [3, 23] | S. Flatsedge plant response rating [4, 14] | S. Flatsedge plant response rating ([4]; Rate 2000 g/ha, Pre-emergence (as headed), scale 0 to 10) | Wild oats plant response rating [5, 17] | Wild oats plant response rating [5, 18] | Plant response rating, Wild oats [5, 20] | Plant response rating, Wild oats [5, 21] | Wild oats plant response rating [5, 22] | Wild oats plant response rating [5, 23]
3: Wheat plant response rating [3, 24] | Wild oats plant response rating [5, 24]
5: Crabgrass plant response rating [1, 22]

CC[C@H](C)n1c(=O)on(C(=O)N(c2ccc(Cl)cc2)C(C)C)c1=O [Compound 664]
5: Plant response rating, Wheat [3, 28]
2: Wheat plant response rating [3, 29]
7: Plant response rating, Wild oats [5, 28] | Wild oats plant response rating [5, 29]
10: Plant response rating, Crabgrass [1, 28]
1: Crabgrass plant response rating [1, 25]
4: Crabgrass plant response rating [1, 6] | Soybean plant response rating [2, 25]
0: Plant response rating, Crabgrass [1, 17] | Soybean plant response rating [2, 6] | Soybean plant response rating [2, 26] | Plant response rating, Soybean [2, 27] | Plant response rating, Soybean [2, 28] | Plant response rating, Wheat [3, 17] | Wheat plant response rating [3, 25] | Wheat plant response rating [3, 6] | Wheat plant response rating [3, 26] | Plant response rating, Wheat [3, 27] | Plant response rating, S. Flatsedge (0 to 10 scale, 0 is no effect, 10 is complete control) ([4]; Rate 62 g/ha, flood test species, Pre-emergence, visual evaluation after twelve to sixteen days) | S. Flatsedge plant response rating (0 to 10 scale, 0 is no effect, 10 is complete control) ([4]; Rate 125 g/ha, under heading Pre-emergence, flood test species, visual evaluation after twelve to sixteen days) | S. Flatsedge plant response rating ([4]; Rate 250 g/ha, Pre-emergence (flood test species), scale 0 to 10, 0 is no effect, 10 is complete control) | S. Flatsedge plant response rating ([4]; Rate 500 g/ha, Pre-emergence section of Table B, 0 to 10 scale (0 no effect, 10 complete control)) | Plant response rating, Wild oats [5, 17] | Wild oats plant response rating [5, 25] | Wild oats plant response rating [5, 6]
9: Crabgrass plant response rating ([1]; Postemergence, Rate 250 g/ha, scale of 0 to 10, 0 is no effect, 10 is complete control) | Plant response rating, Crabgrass [1, 27] | Crabgrass plant response rating [1, 29]
8: Crabgrass plant response rating [1, 26]
3: Plant response rating, Soybean [2, 17] | Wild oats plant response rating [5, 26] | Plant response rating, Wild oats [5, 27]

COc1nc(OC)nc(N(C(=O)n2oc(=O)n(-c3ccccc3C)c2=O)C(C)C)n1 [Compound 181]
0: Crabgrass plant response rating [1, 6] | Crabgrass plant response rating (0 to 10 scale) [1, 7] | Crabgrass plant response rating [1, 8] | Crabgrass plant response rating [1, 9] | Crabgrass plant response rating [1, 10] | Crabgrass plant response rating [1, 11] | Plant response rating (0 to 10; 0 is no effect, 10 is complete control), Crabgrass ([1]; Rate 250 g/ha, Postemergence) | Crabgrass plant response rating [1, 12] | Soybean plant response rating [2, 6] | Soybean plant response rating (0 to 10 scale) [2, 7] | Soybean plant response rating [2, 8] | Soybean plant response rating [2, 9] | Soybean plant response rating [2, 10] | Soybean plant response rating [2, 11] | Plant response rating (0 to 10; 0 is no effect, 10 is complete control), Soybean ([2]; Rate 250 g/ha, Postemergence) | Soybean plant response rating [2, 12] | Wheat plant response rating [3, 6] | Wheat plant response rating [3, 8] | Wheat plant response rating [3, 9] | Wheat plant response rating [3, 11] | Plant response rating (0 to 10; 0 is no effect, 10 is complete control), Wheat ([3]; Rate 250 g/ha, Postemergence) | Wheat plant response rating [3, 12] | S. Flatsedge plant response rating [4, 13] | S. Flatsedge plant response rating [4, 14] | S. Flatsedge plant response rating [4, 15] | S. Flatsedge plant response rating [4, 16] | Wild oats plant response rating [5, 6] | Wild oats plant response rating [5, 8] | Wild oats plant response rating [5, 9] | Wild oats plant response rating [5, 11] | Plant response rating (0 to 10; 0 is no effect, 10 is complete control), Wild oats ([5]; Rate 250 g/ha, Postemergence) | Wild oats plant response rating [5, 12]

From patent publication US6737383B1, “Herbicidal oxadiazolidines” (priority 1999, dated 2004)
